Earlier results in patent publication US20060128641A1, “Levamisole, avermectins or similar in pyrrolidone solvent” (priority 2002, published 2006).

How the values were obtained:
[1] = tested on: Cooperia; conditions: background table, cattle parasites
[2] = tested on: Ostertagia; conditions: background table, cattle parasites
[3] = previously found
[4] = background

pH required for stability [3]: less than 4 | solubility in water [4]: water soluble
SMILES: c1ccc([C@H]2CN3CCSC3=N2)cc1 [Levamisole]
Cooperia Efficacy [1]: Good | Ostertagia Efficacy [2]: Poor
